According to patent US11033535B2, “Oxadiazoles and thiadiazoles as TGF-β inhibitors” (Southern Research Institute, priority 2017, dated 2021):
Where two headings read alike, the source gives them in different places.

Test: Pharmacokinetic evaluation following a single oral and intravenous administration
Type: in vivo, CD1 mouse
Details: CD1, mouse, plasma; for C0 / AUC(0-inf) / AUC(0-t) / MRT inf / half-life / Vd: Table 10, IV Dose: 1 mg/kg
Procedure: A NMP stock solution was prepared by adding 1.136 mL of NMP to 5.68 mg of compound no. 42140 with vortexing and sonification, to obtain a solution with a concentration at 5 mg/mL of 42140:01. Next, to prepare an intravenous formulation, 0.100 mL of the 5 mg/mL stock solution was placed in a new vial. 0.100 mL of NMP and 0.400 mL of PEG400 were added with vortexing and sonification, followed by addition of 0.400 mL of saline with vortexing and sonification. […] 42140:01. Alternatively, to prepare an oral formulation, 0.200 mL of the 5 mg/mL stock solution was placed in a new vial. 0.400 mL of PEG400 was added with vortexing and sonification, followed by addition of 0.400 mL of saline with vortexing and sonifiction. […] 42140:01.
(§1) Briefly, the desired serial concentrations of working solutions were achieved by diluting a stock solution of the compound with 100% acetonitrile. 3 μL of working solutions (5, 10, 20, 50, 100, 500, 1000, 5000, 10000 ng/mL) were added to 30 μL of the blank CD1 mouse plasma to achieve calibration standards of 0.5-1000 ng/mL (0.5, 1, 2, 5, 10, 50, 100, 500, 1000 ng/mL) in a total volume of 33 μL. Five quality control samples at 1 ng/mL, 2 ng/mL, 5 ng/mL, 50 ng/mL and 800 ng/mL for plasma were prepared independently of those used for the calibration curves. These QC samples were prepared on the day of analysis in the same way as calibration standards.
Next, 33 μL standards, 33 μL QC samples, and 33 μL unknown samples (30 μL plasma with 3 μL blank solution) were added to 200 μL of acetonitrile containing IS mixture for precipitating protein, respectively. Then the samples were vortexed for 30 s. After centrifugation at 4 degree Celsius, 4000 rpm for 15 min, 3 μL of supernatant was injected into the LC/MS/MS system for quantitative analysis.
HPLC analysis was performed using 100% water with 0.1% formic acid (Solution A) and 100% acetonitrile with 0.1% formic acid (Solution B) with a flow rate of 0.6 mL/min.
A NMP stock solution was prepared by adding 2.092 mL of NMP to 10.46 mg of […] with vortexing and sonification, to obtain a solution with a concentration at 5 mg/mL of […]. Next, to prepare an intravenous formulation, 0.100 mL of the 5 mg/mL stock solution was placed in a new vial. 0.100 mL of NMP and 0.400 mL of PEG400 were added with vortexing and sonification, followed by addition of 0.400 mL of saline with vortexing and sonification. […] 42320:01. Alternatively, to prepare an oral formulation, 0.200 mL of the 5 mg/mL stock solution was placed in a new vial. 0.400 mL of PEG400 was added with vortexing and sonification, followed by addition of 0.400 mL of saline with vortexing and sonifiction. […] 42320:01.
as §1, with “50 ng/mL,” for “50 ng/mL”

[1] = iv, 1 mg/kg, Table 9, IV Dose: 1 mg/kg, Mouse 1, read-out: Concentration
[2] = iv, 1 mg/kg, Table 9, IV Dose: 1 mg/kg, Mouse 2, read-out: Concentration
[3] = iv, 1 mg/kg, Table 9, IV Dose: 1 mg/kg, Mouse 3, read-out: Concentration
[4] = iv, 1 mg/kg, Table 9, IV Dose: 1 mg/kg, mean, read-out: Concentration, Mean
[5] = po, 5 mg/kg, Table 11, PO Dose: 5 mg/kg, Mouse 4, read-out: Concentration
[6] = po, 5 mg/kg, Table 11, PO Dose: 5 mg/kg, Mouse 5, read-out: Concentration
[7] = po, 5 mg/kg, Table 11, PO Dose: 5 mg/kg, Mouse 6, read-out: Concentration
[8] = po, 5 mg/kg, Table 11, PO Dose: 5 mg/kg, mean, read-out: Concentration, Mean

concentration at 5 min [1]: 86.9 ng/mL
concentration at 5 min [2]: 90.3 ng/mL
concentration at 5 min [3]: 85.7 ng/mL
concentration at 5 min [4]: 87.6 ng/mL
concentration at 0.25 h [1]: 68.4 ng/mL
concentration at 0.25 h [2]: 65 ng/mL
concentration at 0.25 h [3]: 68.3 ng/mL
concentration at 0.25 h [4]: 67.2 ng/mL
concentration at 0.5 h [1]: 68 ng/mL
concentration at 0.5 h [2]: 59.2 ng/mL
concentration at 0.5 h [3]: 52.7 ng/mL
concentration at 0.5 h [4]: 60 ng/mL
concentration at 1 h [1]: 41.2 ng/mL
concentration at 1 h [2]: 39.4 ng/mL
concentration at 1 h [3]: 47.1 ng/mL
concentration at 1 h [4]: 42.6 ng/mL
concentration at 2 h [1]: 26.5 ng/mL
concentration at 2 h [2]: 23.9 ng/mL
concentration at 2 h [3]: 25.9 ng/mL
concentration at 2 h [4]: 25.4 ng/mL
concentration at 4 h [1]: 11.9 ng/mL
concentration at 4 h [2]: 9.71 ng/mL
concentration at 4 h [3]: 13 ng/mL
concentration at 4 h [4]: 11.5 ng/mL
concentration at 8 h [1]: 4.08 ng/mL
concentration at 8 h [2]: 3.66 ng/mL
concentration at 8 h [3]: 5.31 ng/mL
concentration at 8 h [4]: 4.35 ng/mL
C0 (iv, 1 mg/kg, Mouse 1): 97.9 ng/mL
AUC(0-inf) (iv, 1 mg/kg, Mouse 1, read-out: AUCInf): 183 ng·h/mL
AUC(0-t) (iv, 1 mg/kg, Mouse 1, read-out: AUClast): 169 ng·h/mL
MRT inf (iv, 1 mg/kg, Mouse 1, read-out: MRTInf—obs): 2.66 h
half-life (iv, 1 mg/kg, Mouse 1, read-out: T1/2 (converted)): 2.27 h
Vd (iv, 1 mg/kg, Mouse 1, read-out: Vss—obs): 14.6 L/kg
C0 (iv, 1 mg/kg, Mouse 2): 106 ng/mL
AUC(0-inf) (iv, 1 mg/kg, Mouse 2, read-out: AUCInf): 165 ng·h/mL
AUC(0-t) (iv, 1 mg/kg, Mouse 2, read-out: AUClast): 153 ng·h/mL
MRT inf (iv, 1 mg/kg, Mouse 2, read-out: MRTInf—obs): 2.59 h
half-life (iv, 1 mg/kg, Mouse 2, read-out: T1/2 (converted)): 2.29 h
Vd (iv, 1 mg/kg, Mouse 2, read-out: Vss—obs): 15.7 L/kg
C0 (iv, 1 mg/kg, Mouse 3): 96 ng/mL
AUC(0-inf) (iv, 1 mg/kg, Mouse 3, read-out: AUCInf): 193 ng·h/mL
AUC(0-t) (iv, 1 mg/kg, Mouse 3, read-out: AUClast): 172 ng·h/mL
MRT inf (iv, 1 mg/kg, Mouse 3, read-out: MRTInf—obs): 3.17 h
half-life (iv, 1 mg/kg, Mouse 3, read-out: T1/2 (converted)): 2.68 h
Vd (iv, 1 mg/kg, Mouse 3, read-out: Vss—obs): 16.4 L/kg
AUC(0-inf) (iv, 1 mg/kg, mean, read-out: AUCInf, Mean): 180 ng·h/mL
AUC(0-t) (iv, 1 mg/kg, mean, read-out: AUClast, Mean): 165 ng·h/mL
MRT inf (iv, 1 mg/kg, mean, read-out: MRTInf—obs, Mean): 2.81 h
half-life (iv, 1 mg/kg, mean, read-out: T1/2, Mean (converted)): 2.41 h
Vd (iv, 1 mg/kg, mean, read-out: Vss—obs, Mean): 15.6 L/kg
concentration at 0.25 h [5]: 100 ng/mL
concentration at 0.25 h [6]: 71.4 ng/mL
concentration at 0.25 h [7]: 78.6 ng/mL
concentration at 0.25 h [8]: 83 ng/mL
concentration at 0.5 h [5]: 201 ng/mL
concentration at 0.5 h [6]: 121 ng/mL
concentration at 0.5 h [7]: 122 ng/mL
concentration at 0.5 h [8]: 148 ng/mL
concentration at 1 h [5]: 193 ng/mL
concentration at 1 h [6]: 119 ng/mL
concentration at 1 h [7]: 112 ng/mL
concentration at 1 h [8]: 141 ng/mL
SMILES: CC(=O)N[C@@H](Cc1ccc(CN(C)C)cc1)c1nnc(-c2cccc(OC(F)(F)F)c2)s1 [Compound 42320, N-(2-(4-((dimethylamino)methyl)phenyl)-1-(5-(3-(trifluoromethoxy)phenyl)-1,3,4-thiadiazol-2-yl)ethyl)acetamide]
